Paper PMC8815882, “Screening the pandemic response box identified benzimidazole carbamates, Olorofim and ravuconazole as promising drug candidates for the treatment of eumycetoma” (PLoS Neglected Tropical Diseases, 2022)
Where two headings read alike, the source gives them in different places.

Tested on: M. mycetomatis genome strain MM55
Assay: CLSI M38-A2 based in vitro susceptibility screening (XTT or resazurin), growth at fixed concentration
Type: cell-based, Madurella mycetomatis
Settings: Madurella mycetomatis
[1] = 25 uM, mean of replicates, MM55, read-out: Percentage survival at 25um, 25 uM mean
[2] = 25 uM, replicate A, MM55, read-out: Percentage survival at 25um, 25 um A
[3] = 25 uM, replicate B, MM55, read-out: Percentage survival at 25um, 25 uM B
[4] = 25 uM, replicate C, MM55, read-out: Percentage survival at 25um, 25 uM C
[5] = mean of replicates, MM55, read-out: Percentage survival at 100um, 100 uM mean
[6] = replicate 1, MM55, read-out: Percentage survival at 100um, 100 uM A
[7] = replicate 2, MM55, read-out: Percentage survival at 100um, 100 uM A
[8] = replicate 3, MM55, read-out: Percentage survival at 100um, 100 uM A
[9] = 25 uM, mean of three replicates, read-out: Percentage survival at 25um, 25 uM mean
[10] = 25 uM, replicate A, read-out: Percentage survival at 25um, 25 um A
[11] = 25 uM, replicate B, read-out: Percentage survival at 25um, 25 uM B
[12] = 25 uM, replicate C, read-out: Percentage survival at 25um, 25 uM C
[13] = first replicate column, read-out: Percentage survival at 100um, 100 uM A
[14] = mean of three replicates, read-out: Percentage survival at 100um, 100 uM mean
[15] = second replicate column, read-out: Percentage survival at 100um, 100 uM A
[16] = third replicate column, read-out: Percentage survival at 100um, 100 uM A
[17] = 25 uM, replicate A, M. mycetomatis MM55, read-out: Percentage survival at 25um, 25 um A
[18] = mean of three, M. mycetomatis MM55, read-out: Percentage survival at 100um, 100 uM mean
[19] = replicate 1, M. mycetomatis MM55, read-out: Percentage survival at 100um, 100 uM A (first replicate column)
[20] = replicate 2, M. mycetomatis MM55, read-out: Percentage survival at 100um, 100 uM A (second replicate column)
[21] = replicate 3, M. mycetomatis MM55, read-out: Percentage survival at 100um, 100 uM A (third replicate column)
[22] = replicate 1, read-out: Percentage survival at 100um, 100 uM A (first replicate column)
[23] = replicate 2, read-out: Percentage survival at 100um, 100 uM A (second replicate column)
[24] = replicate 3, read-out: Percentage survival at 100um, 100 uM A (third replicate column)
[25] = 25 uM, mean of replicates, read-out: Percentage survival at 25um, 25 uM mean
[26] = mean of replicates, read-out: Percentage survival at 100um, 100 uM mean
[27] = replicate 1, read-out: Percentage survival at 100um, 100 uM A
[28] = replicate 2, read-out: Percentage survival at 100um, 100 uM A
[29] = replicate 3, read-out: Percentage survival at 100um, 100 uM A

CC(N)C12CC3CC(CC(C3)C1)C2 (stereo not shown) [MMV637855]
activity at 25 µM [1]: 86% | activity at 25 µM [2]: 78.5% | activity at 25 µM [3]: 82.6% | activity at 25 µM [4]: 96.9% | activity at 100 µM [5]: 60.7% | activity at 100 µM [6]: 60.1% | activity at 100 µM [7]: 57.9% | activity at 100 µM [8]: 64%

CC(C)(C)NC(=O)[C@@H]1C[C@@H]2CCCC[C@@H]2CN1C[C@@H](O)[C@H](Cc1ccccc1)NC(=O)[C@H](CC(N)=O)NC(=O)c1ccc2ccccc2n1 [MMV637879]
activity at 25 µM [9]: 92.5% | activity at 25 µM [10]: 98.2% | activity at 25 µM [11]: 97.6% | activity at 25 µM [12]: 81.5% | activity at 100 µM [13]: 102% | activity at 100 µM [14]: 93.3% | activity at 100 µM [15]: 95.3% | activity at 100 µM [16]: 82.8%

CC1(C)[C@H](C(=O)O)N2C(=O)C[C@H]2S1(=O)=O [MMV637945]
activity at 25 µM [17]: 97.1% | activity at 100 µM [18]: 98.9% | activity at 100 µM [19]: 99.5% | activity at 100 µM [20]: 112% | activity at 100 µM [21]: 85.4% | activity at 25 µM (read-out: Percentage survival at 25um, 25 uM B): 95.1% | activity at 25 µM (read-out: Percentage survival at 25um, 25 uM C): 84.6% | activity at 25 µM (read-out: Percentage survival at 25um, 25 uM mean): 92.3%

C=C(C)[C@@H]1CC[C@]2(C(=O)O)CC[C@]3(C)[C@H](CC[C@@H]4[C@@]5(C)CC[C@H](O)C(C)(C)[C@@H]5CC[C@]43C)[C@@H]12 [MMV638198]
activity at 25 µM [1]: 78.4% | activity at 25 µM [2]: 65.7% | activity at 25 µM [3]: 92.3% | activity at 25 µM [4]: 77.1% | activity at 100 µM [5]: 79.4% | activity at 100 µM [6]: 83.2% | activity at 100 µM [7]: 80.2% | activity at 100 µM [8]: 74.7%

COC1CC2CCC(C)C(O)(O2)C(=O)C(=O)N2CCCCC2C(=O)OC(C(C)CC2CCC(OCCO)C(OC)C2)CC(=O)C(C)/C=C(\C)C(O)C(OC)C(=O)C(C)CC(C)/C=C/C=C/C=C/1C (stereo not shown) [MMV639951]
activity at 25 µM [9]: 61.4% | activity at 25 µM [10]: 64.2% | activity at 25 µM [11]: 62.2% | activity at 25 µM [12]: 57.7% | activity at 100 µM [13]: 69.2% | activity at 100 µM [14]: 51.7% | activity at 100 µM [15]: 46.7% | activity at 100 µM [16]: 39.4%

O=C(O)c1ccc(-n2nc(-c3ccccc3O)nc2-c2ccccc2O)cc1 [MMV640014]
activity at 25 µM (25 uM, mean, read-out: Percentage survival at 25um, 25 uM mean): 87% | activity at 25 µM [10]: 94.6% | activity at 25 µM [11]: 88.3% | activity at 25 µM [12]: 78% | activity at 100 µM (mean, read-out: Percentage survival at 100um, 100 uM mean): 78.4% | activity at 100 µM (replicate (first column), read-out: Percentage survival at 100um, 100 uM A): 85.5% | activity at 100 µM (replicate (second column), read-out: Percentage survival at 100um, 100 uM A): 73.2% | activity at 100 µM (replicate (third column), read-out: Percentage survival at 100um, 100 uM A): 76.5%

Cn1cncc1[C@@](N)(c1ccc(Cl)cc1)c1ccc2c(c1)c(-c1cccc(Cl)c1)cc(=O)n2C [MMV658803]
activity at 25 µM [1]: 43.8% | activity at 25 µM [2]: 0.79% | activity at 25 µM [3]: 64.2% | activity at 25 µM [4]: 66.2% | activity at 100 µM [5]: 36.3% | activity at 100 µM [6]: 13.3% | activity at 100 µM [7]: 45% | activity at 100 µM [8]: 50.7%

CCc1nc2ccc(Cl)cn2c1C(=O)NCc1ccc(N2CCC(c3ccc(OC(F)(F)F)cc3)CC2)cc1 [MMV687696]
activity at 25 µM [9]: 93.6% | activity at 25 µM [10]: 95% | activity at 25 µM [11]: 93.8% | activity at 25 µM [12]: 91.9% | activity at 100 µM [14]: 84.8% | activity at 100 µM [22]: 87.8% | Percent fungal survival at 100 µM [23]: 86.4% | activity at 100 µM [24]: 80.3%

C[C@H]1COc2c(N3CCN(C)CC3)c(F)cc3c(=O)c(C(=O)O)cn1c23 [MMV687798]
activity at 25 µM [1]: 96.2% | activity at 25 µM [2]: 101% | activity at 25 µM [3]: 105% | activity at 25 µM [4]: 82.9% | activity at 100 µM [5]: 91.4% | activity at 100 µM [6]: 97.4% | activity at 100 µM [7]: 91.1% | activity at 100 µM [8]: 85.7%

CC(C)/N=c1\cc2n(-c3ccc(Cl)cc3)c3ccccc3nc-2cc1Nc1ccc(Cl)cc1 [MMV687800]
activity at 25 µM (25 uM, mean of three, M. mycetomatis MM55, read-out: Percentage survival at 25um, 25 uM mean): 71% | activity at 25 µM [17]: 77.2% | activity at 25 µM (25 uM, replicate B, M. mycetomatis MM55, read-out: Percentage survival at 25um, 25 uM B): 68.8% | activity at 25 µM (25 uM, replicate C, M. mycetomatis MM55, read-out: Percentage survival at 25um, 25 uM C): 67.2% | activity at 100 µM [18]: 71.4% | activity at 100 µM [19]: 65.1% | Percent fungal survival at 100 µM [20]: 75.2% | activity at 100 µM [21]: 73.9%

CC[C@@H](CO)NCCN[C@@H](CC)CO [MMV687801]
activity at 25 µM [25]: 87.9% | activity at 25 µM [10]: 86.9% | activity at 25 µM [11]: 87.9% | activity at 25 µM [12]: 88.8% | activity at 100 µM [26]: 85.7% | activity at 100 µM [27]: 96.9% | activity at 100 µM [28]: 79.4% | activity at 100 µM [29]: 80.8%

O=[N+]([O-])c1cn2c(n1)OC[C@@H](OCc1ccc(OC(F)(F)F)cc1)C2 [MMV688755]
activity at 25 µM [25]: 85.3% | activity at 25 µM [10]: 91.8% | activity at 25 µM [11]: 92.4% | activity at 25 µM [12]: 71.7% | activity at 100 µM [26]: 85.9% | activity at 100 µM [27]: 75% | activity at 100 µM [28]: 105% | activity at 100 µM [29]: 77.3%

CC(=O)NC[C@H]1CN(c2ccc(N3CCSCC3)c(F)c2)C(=O)O1 [MMV688756]
activity at 25 µM [25]: 96.1% | activity at 25 µM [10]: 94.4% | activity at 25 µM [11]: 99.9% | activity at 25 µM [12]: 94.2% | activity at 100 µM [26]: 92.4% | activity at 100 µM [27]: 100% | activity at 100 µM [28]: 85.2% | activity at 100 µM [29]: 91.6%

CC(=O)Oc1ccccc1C(=O)Nc1ncc([N+](=O)[O-])s1 [MMV688991]
activity at 25 µM [1]: 103% | activity at 25 µM [2]: 90% | activity at 25 µM [3]: 88.2% | activity at 25 µM [4]: 131% | activity at 100 µM [5]: 68% | activity at 100 µM [6]: 76.1% | activity at 100 µM [7]: 57.8% | activity at 100 µM [8]: 70.1%

COc1nc2ccc(Br)cc2cc1[C@@H](c1ccccc1)[C@@](O)(CCN(C)C)c1cccc2ccccc12 [MMV689758]
activity at 25 µM [9]: 98.1% | activity at 25 µM [10]: 102% | activity at 25 µM [11]: 87.7% | activity at 25 µM [12]: 104% | activity at 100 µM [14]: 84.6% | activity at 100 µM [22]: 80.8% | Percent fungal survival at 100 µM [23]: 75.9% | activity at 100 µM [24]: 97.2%

Cc1cc(CCCOc2c(C)cc(-c3noc(C(F)(F)F)n3)cc2C)on1 [MMV690467]
activity at 25 µM [1]: 115% | activity at 25 µM [2]: 152% | activity at 25 µM [3]: 84.5% | activity at 25 µM [4]: 108% | activity at 100 µM [5]: 79.3% | activity at 100 µM [6]: 70.9% | activity at 100 µM [7]: 103% | activity at 100 µM [8]: 64.3%

COc1ccccc1CN[C@H]1C2CCN(CC2)[C@H]1C(c1ccccc1)c1ccccc1 [MMV690480]
activity at 25 µM [9]: 83.2% | activity at 25 µM [10]: 61.4% | activity at 25 µM [11]: 107% | activity at 25 µM [12]: 81.2% | activity at 100 µM [13]: -1.66% | activity at 100 µM [14]: 27.7% | activity at 100 µM [15]: 2.79% | activity at 100 µM [16]: 82%

CCOCc1nc2c(N)nc3ccccc3c2n1CC(C)(C)O [MMV690547]
activity at 25 µM [9]: 98% | activity at 25 µM [10]: 95.3% | activity at 25 µM [11]: 111% | activity at 25 µM [12]: 87.7% | activity at 100 µM [14]: 90.4% | activity at 100 µM [22]: 97% | Percent fungal survival at 100 µM [23]: 86.2% | activity at 100 µM [24]: 87.9%

FC(F)(F)c1cc(C(F)(F)F)c2ccc3nc(-c4nnco4)cn3c2n1 [MMV690555]
activity at 25 µM [1]: 91.6% | activity at 25 µM [2]: 100% | activity at 25 µM [3]: 96.8% | activity at 25 µM [4]: 77.9% | activity at 100 µM [5]: 81.1% | activity at 100 µM [6]: 87% | activity at 100 µM [7]: 83.1% | activity at 100 µM [8]: 73.1%

O=C(NC1CCCc2c1[nH]c1ccc(Cl)cc21)c1ccccn1 (stereo not shown) [MMV690621]
activity at 25 µM [9]: 79% | activity at 25 µM [10]: 75.2% | activity at 25 µM [11]: 91.8% | activity at 25 µM [12]: 70.2% | activity at 100 µM [13]: -4.95% | activity at 100 µM [14]: -0.446% | activity at 100 µM [15]: -2.06% | activity at 100 µM [16]: 5.67%
